Converted amounts (≈) assume the structure as drawn. Where two headings read alike, the source gives them in different places.
What was measured:
P. falciparum strain W2 = test: labeled hypoxanthine susceptibility assay, P. falciparum W2; assay type: cell-based, Plasmodium falciparum; details: Plasmodium falciparum
Procedure: (§1) The in vitro activities of quinoline methanols against P. falciparum strains W2, D6, TM91C235, and TM90C2A were evaluated using the traditional labeled hypoxanthine assay of Desjardins et al as modified by Milhous et al. These four P. falciparum strains were selected since they have various levels of resistance to conventional anti-malarials.

[1] = system: P. falciparum strain TM91C235; test: labeled hypoxanthine susceptibility assay, P. falciparum TM91C235; assay type: cell-based, Plasmodium falciparum; details: Plasmodium falciparum
Procedure: as §1

[2] = system: rodent macrophage (RAW) cell line; test: cells; details: Mus musculus, Macrophage, read-out: Macrophage IC50
in vitro [3] = details: dog, MDCK-MDR1, pH 7.4
Procedure: (§2) For this reason, the apparent permeability of selected compounds across MDR1-transfected MDCK cell monolayers was determined. This assay is an in vitro surrogate of the blood-brain barrier.
(§3) Permeability was determined by Absorption Systems (Exton, PA). MDR1-MDCK cell monolayers were grown to confluence on collagen-coated, microporous, polycarbonate membranes in 12-well Costar Transwell plates. […] The permeability assay buffer was Hanks Balanced Salt Solution containing 10 mM HEPES and 15 mM glucose at a pH of 7.4. A known p-glycoprotein inhibitor cyclosporin A (CSA) was also added to the assay buffer at 10 μM. Bovine serum albumin (1%) was added to the receiver well. The dosing solution concentrations of the test compounds were 5.0 μM in the assay buffer. All cell monolayers were first pre-incubated for 30 minutes with assay buffer. After 30 minutes, the buffer was removed, replaced with fresh buffer, and time was recorded as 0. […] Cell monolayers were dosed on the apical side (A-to-B) or basolateral side (B-to-A) and incubated at 37°C with 5% CO2 in a humidified incubator. After 2 hours, aliquots were taken from the receiver chambers. Samples were taken from the donor chamber at 0 and 2 hours. Each determination was performed in duplicate. The lucifer yellow flux was also measured for each monolayer to ensure no damage was inflicted to the cell monolayers during the flux period. All samples were assayed by LC/MS/MS using electrospray ionization.
(§4) Apparent permeability in the apical (A-B direction), PappA-B, and percent recovery are reported. Apparent permeability is a measure of the rate of transport across the cell monolayer. Percent recovery refers to the amount of compound recoverable at the end of the assay. Low recovery may indicate non-specific binding to assay plates, instability or accumulation in the cell pellet.
(§5) The apparent permeability, Papp, and percent recovery were calculated as follows:
(§6) Papp = (dCr/dt) × Vr/(A × C0) (1)
(§7) Percent Recovery = 100 × ((Vr × Cr^final) + (Vd × Cd^final))/(Vd × […]) (2)

[4] = system: MDR1-transfected MDCK cell monolayers; test: in vitro; details: dog, MDCK-MDR1, 2 h, 5 μM, pH 7.4
Procedure: as §2, §3, §4, §5, §6, §7

CYP450 2C9 = biological target: T1, CYP450 2C9 (Homo sapiens, UniProt P11712); test: CYP450 inhibition kit (drug-drug interaction), 2C9; assay type: biochemical
T1 construct: purchased BD Gentest (Franklin Lakes, NJ)
T1 sequence (P11712 whole entry): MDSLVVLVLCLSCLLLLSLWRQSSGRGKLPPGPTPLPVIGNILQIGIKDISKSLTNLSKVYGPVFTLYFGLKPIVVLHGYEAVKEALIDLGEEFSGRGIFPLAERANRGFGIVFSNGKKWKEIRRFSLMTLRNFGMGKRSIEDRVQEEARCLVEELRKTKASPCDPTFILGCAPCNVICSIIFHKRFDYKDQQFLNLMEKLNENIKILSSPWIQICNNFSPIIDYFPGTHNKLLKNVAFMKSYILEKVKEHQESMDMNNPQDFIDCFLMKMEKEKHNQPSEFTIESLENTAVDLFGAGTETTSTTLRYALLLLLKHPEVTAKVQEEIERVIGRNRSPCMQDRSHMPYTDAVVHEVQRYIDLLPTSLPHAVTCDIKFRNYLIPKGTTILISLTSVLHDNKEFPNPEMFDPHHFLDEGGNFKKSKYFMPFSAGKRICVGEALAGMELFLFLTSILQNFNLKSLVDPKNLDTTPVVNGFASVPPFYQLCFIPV
Procedure: (§8) Low IC50s against specific cytochrome P450 isoforms may indicate the potential for a harmful drug interaction to occur in vivo with substrates of that isoform. A lack of metabolic stability in vitro may indicate potential metabolic instability in vivo, and, therefore, a shorter half-life. Drug interaction potential was evaluated in vitro using BD Gentest (Franklin Lakes, NJ) CYP450 inhibition kits as recommended by the manufacturer. Metabolic stability assessments were conducted using in vitro liver microsomes. […] The reaction is started with the addition of 1 U/mL glucose-6-phosphate dehydrogenase G6PD. The mixture is incubated on a shaking platform at 37°C, and aliquots are taken and quenched with the addition of an equal volume of cold acetonitrile at 0, 10, 20, 30, and 60 min. Samples are centrifuged at 3700 rpm for […] at 20°C to remove debris. Sample quantification is carried out by LC/MS, and metabolic half-life is calculated by log plots of the total ion chromatograph area remaining.

CYP450 2C19 = biological target: T2, CYP450 2C19 (Homo sapiens, UniProt P33261); test: CYP450 inhibition kit (drug-drug interaction), 2C19; assay type: biochemical
T2 construct: purchased BD Gentest (Franklin Lakes, NJ)
T2 sequence (P33261 whole entry): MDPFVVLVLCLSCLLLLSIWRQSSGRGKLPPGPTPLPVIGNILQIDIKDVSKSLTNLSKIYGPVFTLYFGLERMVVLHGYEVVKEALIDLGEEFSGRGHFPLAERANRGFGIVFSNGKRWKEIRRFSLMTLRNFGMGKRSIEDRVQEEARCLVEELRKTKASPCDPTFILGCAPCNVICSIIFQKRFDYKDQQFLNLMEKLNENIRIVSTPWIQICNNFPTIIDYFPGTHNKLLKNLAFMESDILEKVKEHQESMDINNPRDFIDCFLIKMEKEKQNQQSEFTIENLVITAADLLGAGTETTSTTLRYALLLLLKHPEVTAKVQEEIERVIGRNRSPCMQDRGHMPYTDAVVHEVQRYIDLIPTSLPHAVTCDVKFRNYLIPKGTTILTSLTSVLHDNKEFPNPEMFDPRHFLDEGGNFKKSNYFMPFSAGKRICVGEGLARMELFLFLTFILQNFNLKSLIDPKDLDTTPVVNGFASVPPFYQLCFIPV
Procedure: as §8

CYP450 2D6 = biological target: T3, CYP450 2D6 (Homo sapiens, UniProt P10635); test: CYP450 inhibition kit (drug-drug interaction), 2D6; assay type: biochemical
T3 construct: purchased BD Gentest (Franklin Lakes, NJ)
T3 sequence (P10635 whole entry): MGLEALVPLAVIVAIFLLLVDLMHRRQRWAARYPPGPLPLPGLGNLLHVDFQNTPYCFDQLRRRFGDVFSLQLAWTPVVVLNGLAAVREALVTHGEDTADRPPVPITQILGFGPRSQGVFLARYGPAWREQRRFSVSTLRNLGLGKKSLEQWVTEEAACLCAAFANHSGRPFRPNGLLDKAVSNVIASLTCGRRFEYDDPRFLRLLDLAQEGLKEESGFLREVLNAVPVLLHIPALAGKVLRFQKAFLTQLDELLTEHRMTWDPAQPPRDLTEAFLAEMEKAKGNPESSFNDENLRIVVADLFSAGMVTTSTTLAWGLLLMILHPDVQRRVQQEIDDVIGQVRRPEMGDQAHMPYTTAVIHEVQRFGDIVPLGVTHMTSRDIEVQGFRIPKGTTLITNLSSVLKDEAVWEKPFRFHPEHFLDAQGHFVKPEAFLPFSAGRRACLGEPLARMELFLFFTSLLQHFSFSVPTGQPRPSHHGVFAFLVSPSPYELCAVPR
Procedure: as §8

in vitro [5] = details: mouse

Structure (SMILES) | IC90 (P. falciparum strain W2; W2, read-out: IC90 Pf W2) | IC90 (P. falciparum strain W2; W2, read-out: PF W2 IC90) | IC90 ([1]; read-out: IC90 Pf C235) | IC90 ([1]; read-out: PF C235 IC90) | IC50 [2] | Papp A→B at 2 h, 5 μM (in vitro [3]) | % recovery (MDCK-MDR1 permeability assay) [4] | IC50 (CYP450 2C9) | IC50 (CYP450 2C19) | IC50 (CYP450 2D6) | CC50 (in vitro [5]) | PappA-B MDCK-MDR1 [4]
CC(C)NCC(O)c1cc(C(F)(F)F)nc2c(C(F)(F)F)cccc12 (stereo not drawn) [WR308257] | 0.0047 µg/mL (≈ 0.0128 µM) | 0.00465 µg/mL (≈ 0.0127 µM) | 0.023 µg/mL (≈ 0.0628 µM) | 0.0234 µg/mL (≈ 0.0638 µM) | 14.2 µM | 25 ×10⁻⁶ cm/s | 69% | 37 µM | 26 µM | 1.9 µM | – | –
OC(CNCCNCc1ccccc1)c1cc(C(F)(F)F)nc2c(C(F)(F)F)cccc12 (stereo not drawn) [WR308396] | 0.0062 µg/mL (≈ 0.0136 µM) | – | 0.04 µg/mL (≈ 0.0874 µM) | 0.0401 µg/mL (≈ 0.0877 µM) | 18.1 µM | – | – | 14 µM | 5.8 µM | 0.7 µM | 8.28 µg/mL (≈ 18.1 µM) | 8.4 10^-6 cm/s
CNCC(O)c1cc(C(F)(F)F)nc2c(C(F)(F)F)cccc12 (stereo not drawn) [WR308245] | 0.017 µg/mL (≈ 0.0503 µM) | 0.0168 µg/mL (≈ 0.0495 µM) | 0.058 µg/mL (≈ 0.171 µM) | 0.0576 µg/mL (≈ 0.17 µM) | 40.4 µM | – | 59% | > 40 µM | 33 µM | 7.4 µM | – | 24 10^-6 cm/s
CSCCCNCC(O)c1cc(C(F)(F)F)nc2c(C(F)(F)F)cccc12 (stereo not drawn) [WR308278] | 0.0097 µg/mL (≈ 0.0235 µM) | 0.00969 µg/mL (≈ 0.0235 µM) | 0.039 µg/mL (≈ 0.0946 µM) | 0.0393 µg/mL (≈ 0.0953 µM) | 20.9 µM | – | 54% | 6.3 µM | 3.6 µM | 1.4 µM | – | 38 10^-6 cm/s

From article PMC2833169, “Anti-malarial activity of a non-piperidine library of next-generation quinoline methanols” (Malaria Journal, 2010)
